Assay results taken from patent publication US11624748B2, “Methods and compositions for the identification of epithelial to mesenchymal breast cancer” (Tuskegee University, priority 2019, dated 2023).

Tests used:
[1] = tested on: human breast cancer tissue microarray; assay: ex vivo phage binding to human breast cancer tissue microarray; details: for immunostaining for phage in invasive ductal breast cancer carcinoma: invasive ductal carcinoma sections, 10^10 pfu overnight; for binding in normal breast tissues: normal breast tissue
Procedure: FIG. 7A-7E presents results of ex vivo phage binding to a human breast cancer tissue microarray. Tissue microarray of invasive ductal carcinoma and adjacent normal tissues were incubated with 1010 pfu of LGLRGSL phage (SEQ ID NO: 1) or Vimentin antibody and then subsequently with M13-pIII antibody for phage and secondary peroxidase antibody for phage and Vimentin, imaged with a digital light microscope.
The breast tissue microarrays were obtained from Novus Biological (Littleton, Colo.). These include 40 breast cancer infiltrating ductal carcinoma, 10 metastatic lymph node and 9 adjacent normal breast tissues. The use of tissue was approved by the Institutional Review Board of Tuskegee University. Clinico-histopathologic characteristics of the subjects in the tissue microarray study included age, grade, hormone status and clinical stage, according to information provided by the suppliers. The expression levels were classified as negative (≤0.3), weak positive (0.3 to 1.5), or strong positive (≥1.5). Tissues were de-paraffinized in xylene and rehydrated in graded alcohols. For antigen retrieval the slides were pressure-cooked for 10 minutes. Endogenous peroxidase activity was quenched with 3% hydrogen peroxide for 5 minutes. vSlides were treated with LGLRGSL phage (SEQ ID NO: 1) (10^10 pfu) overnight. Slides were subsequently washed and blocked by 3% goat serum at room temperature for 1 hour in humidity chambers. Slides were then treated with M13-pIII phage monoclonal antibody (NEB, MA) or Vimentin antibody (Cell Siganling, Danvers, Mass.) (1:100). The HRP conjugated goat anti-mouse secondary antibody (Jackson Immunoresearch Laboratories Inc, West Grove, Pa.) was applied for 40 minutes. The antigen-antibody reaction was visualized after diaminobenzidine (Sigma-Aldrich, MO) was applied for 7 minutes. The slides were counterstained with hematoxylin (Sigma-Aldrich, MO) for 1 minute. Positive controls were included in each staining run; negative controls were obtained by omitting the primary antibody. Slides were then dehydrated in alcohols and cleared in three xylene baths before being mounted with Permount media.

activated fibroblasts = assay: phage capture assay of phage binding to cancer-conditioned media activated fibroblasts; format: cell-based, human
Procedure: (§1) In phage capture assay, briefly, target cells MCF-7/TGFβ, MDA-MB-231, MCF-7, T47D, T47D-shNMI and breast fibroblasts were cultivated in triplicate to confluence in separate wells of 12-well cell culture plates. The medium with serum was incubated in separate wells in triplicate as a control. Cells were incubated with phage (1×10^10 pfu) at RT for 1 h. Unbound phages were carefully removed and cells were washed with 100 μl washing buffer for 5 min eight times to remove non-specifically interacting phages. Cells were lysed with […] (2.5% CHAPS) for 10 min on a rocker. The lysate containing cell-interacting phages was titered in E. coli ER2738 bacterial cells. Phage recovery was calculated as a ratio of output to input phage.
Breast fibroblasts were plated in a 12.5 cm flask cultured until approximately 70% confluent. Once properly confluent, fibroblasts were then cultured in MDA-MB-231 conditioned media or normal fibroblasts media for 72 hours. Thereafter, they were exposed to E11 phage (10^8 pfu) for 2 hours and analyzed for binding in phage capture assay as described above.

[2] = tested on: EMT phenotypic cells (MCF-7/TGFβ, MDA-MB-231 and T47D-shNMI); assay: phage capture assay; format: cell-based, human; details: for selectivity for EMT phenotypic cells: MDA-MB-231 and T47D-shNMI, selective = at least five times higher relative binding
Text: (§2) Individual phage clones were characterized for their selectivity toward EMT cells, MCF-7/TGFβ and MDA-MB-231 breast cancer cells in comparison with epithelial breast cancer cells, MCF-7, T47D, and breast fibroblasts using phage capture assay and cell-based ELISA.
as §1

heat shock protein HSPD1 = molecular target: T1, heat shock protein HSPD1 (Homo sapiens, UniProt P10809); assay: biotinylated phage pulldown of receptor protein from MDA-MB-231; format: binding; details: pulldown from MDA-MB-231
T1 construct: endogenous in cells; host or cells: MDA-MB-231 human breast cancer cells
T1 sequence (P10809 27-573): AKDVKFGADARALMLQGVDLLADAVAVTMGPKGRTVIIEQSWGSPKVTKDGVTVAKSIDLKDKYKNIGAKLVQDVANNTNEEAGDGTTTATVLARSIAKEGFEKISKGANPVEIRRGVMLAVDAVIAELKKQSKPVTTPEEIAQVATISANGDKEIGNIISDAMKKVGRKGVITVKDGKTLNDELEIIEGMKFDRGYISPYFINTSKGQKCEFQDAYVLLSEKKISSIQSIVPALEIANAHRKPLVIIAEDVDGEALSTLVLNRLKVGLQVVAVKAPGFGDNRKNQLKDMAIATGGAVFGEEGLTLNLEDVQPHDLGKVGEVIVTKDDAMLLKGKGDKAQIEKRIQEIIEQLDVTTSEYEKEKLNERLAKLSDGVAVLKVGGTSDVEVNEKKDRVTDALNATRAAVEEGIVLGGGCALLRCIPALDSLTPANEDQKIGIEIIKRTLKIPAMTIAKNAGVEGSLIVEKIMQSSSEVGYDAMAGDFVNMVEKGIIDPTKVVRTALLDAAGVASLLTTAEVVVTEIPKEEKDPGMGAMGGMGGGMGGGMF
Procedure: The biotinylated phage immobilizes the receptor protein. The Dynal magnetic beads are then functionalized with streptavidin. […] To visualize the protein, the SDS-page gel was treated with silver nitrate staining. FIG. 9B discloses SEQ ID NO: 26. FIG. 9 C provides the sequence of Heat shock protein (HSPD1), mitochondrial n=2 Tax=Homo sapiens RepID=CH60_HUMAN 5 exclusive unique peptides, 5 exclusive unique spectra, 8 total spectra, 48/573 amino acids (8% coverage). FIG. 9C discloses SEQ ID NO: 27.

[3] = tested on: EMT cells (MCF-7/TGFβ, MDA-MB-231, T47D-shNMI); assay: phage based-ELISA (cell-based ELISA); set-up: species or system human; details: 10^10 PFU, 1 hour at RT
Procedure: as §2
Confluent monolayers of MCF-7/TGFβ, MDA-MB-231, MCF-7, T47D, T47D-shNMI and breast fibroblasts cells were incubated at room temperature with individual phage clones (10^10 PFU), for 1 hour at RT. Subsequently, cells were washed with PBS containing 0.1% Tween-20, incubated with primary anti-M13-biotin antibody (1:1000), for 1 h, at RT. Cells were washed again with PBS containing 0.1% Tween-20, incubated with secondary antibody streptavidin-HRP (1:2000, 45 min, RT), developed with tetra methyl benzidine and read at absorbance 650 with microplate reader (BioTek).

MCF-7 cells = assay: immunofluorescence microscopy of phage binding; format: cell-based, human; details: 10^8 pfu, RT 1 hr
Procedure: (§3) MCF-7, MCF-7/TGFβ, MDA-MB-231 and Hs578T (breast fibroblasts) cells were seeded in a 4-well chamber overnight. On the next day, cells were fed with fresh medium. LGLRGSL (SEQ ID NO: 1) (E11) (10^8 pfu) was added in fresh medium and incubated at RT for one hour. After removing the unbound phages, cells were washed with wash buffer (0.1% tween-20 in PBS) three times and fixed with 4% formaldehyde for 15 minutes at 37° C. Cells were permeabilized with 0.2% Triton X-100 at RT for 10 minutes. Reagent was removed and cells were washed with TBS 3 times. Before incubation with anti-phage antibody, cells were treated with blocking buffer for 30 minutes at RT. Cells were incubated with M13-pIII monoclonal antibody for 1 hour at RT, washed and incubated with the secondary goat anti-mouse IgG antibody labeled with Alexa Flour® 488 (Molecular Probes) at a dilution of 1:500 in PBS containing 1% BSA for 45 minutes at RT. Cells were washed three times after secondary antibody treatment. TOTO-3 was used for nucleus staining. Cells were covered with cover slides with Prolong Gold Anti-fade Reagents. Nail polish was used to seal the slide. Pictures were taken by using the NIKON eclipse TE 2000-E confocal microscope.
(§4) To further confirm the specificity of LGLRGSL (SEQ ID NO: 1) (E11) towards breast cancer cells with an EMT phenotype, immunofluorescence microscopy of intact cells (MCF-7/TGF β and MDA-MB-231), and control MCF-7 breast cancer cells and breast fibroblasts (Hs578T) were used. All cells were treated with the phage (10^8 pfu) at RT for 1 hr, and subsequently incubated with primary anti-pIII antibody and then stained with secondary anti-mouse Alexa fluor 488 secondary antibody. […] No background antibody was observed as shown in the respective controls of cells treated with just primary and secondary antibodies.

MCF-7/TGFβ = assay: immunofluorescence microscopy of phage binding; format: cell-based, human; details: 10^8 pfu, RT 1 hr
Procedure: as §3, §4

MDA-MB-231 = assay: immunofluorescence microscopy of phage binding; format: cell-based, human; details: 10^8 pfu, RT 1 hr
Procedure: as §3, §4

[4] = tested on: breast fibroblasts (Hs578T); assay: immunofluorescence microscopy of phage binding; format: cell-based, human; details: 10^8 pfu, RT 1 hr
Procedure: as §3, §4

Substance: LGLRGSL [E11]
- immunostaining for phage in invasive ductal breast cancer carcinoma [1]: substantial staining
- immunostaining for phage in invasive ductal breast cancer carcinoma ([1]; listed as LGLRGSL phage): Strong brown staining
- staining intensity in tumors invading into adjacent lymph nodes ([1]; metastasis in lymph nodes): increased
- binding in normal breast tissues [1]: no binding
- binding in normal breast tissues ([1]; listed as LGLRGSL phage): no staining
- staining around the invasive or leading edge of the tumor-stromal interaction ([1]; tumor cells, invasive or leading edge): robust staining
- reactivity to activated fibroblasts (activated fibroblasts; FIG. 5, FBC vs FBD): highly reactive
- binding to activated-fibroblasts than normal fibroblasts (activated fibroblasts; fibroblasts in MDA-MB-231 conditioned media 72 hours vs normal fibroblast media, 10^8 pfu, 2 hours): twice as much
- selectivity for EMT phenotypic cells ([2]; MCF-7/TGFβ): very selective
- binding to heat shock protein HSPD1 (heat shock protein HSPD1): binds
- selectivity towards EMT cells in phage-based ELISA [3]: confirmatory
- phage binding (green fluorescent phage staining) (MCF-7 cells): some staining
- phage binding (green fluorescent phage staining) (MCF-7/TGFβ): abundant binding
- phage binding (green fluorescent phage staining) (MDA-MB-231): abundant binding
- phage binding (green fluorescent phage staining) [4]: almost no binding

Substance: PNLPWVP [E45]
- selectivity for EMT phenotypic cells ([2]; MCF-7/TGFβ): very selective

Substance: GTFLFS [E32]
- selectivity for EMT phenotypic cells ([2]; MCF-7/TGFβ): very selective

Substance: KGDYKLF [L42]
- selectivity towards MCF-7/TGFβ, MCF-7 and breast fibroblasts ([2]; MCF-7/TGFβ, MCF-7 and breast fibroblasts): not so selective
- specificity towards MDA-MB-231 cells ([2]; MDA-MB-231 cells): high specificity
